Experimental data as given in patent publication USRE47475E1, “Selective agents for pain suppression” (WiSys Technology Foundation, Inc., priority 2002, dated 2019).

Legend:
[1] = system: Formalin Pain (mouse, i.p.); assay: T22 formalin test (chemically induced pain); type: in vivo
Description: This elicits a distinct bi-phasic behavioral profile in response to the formalin injection characterized by licking of the affected paw, and the number of licks is measured as a proxy for perceived pain. The first (acute) phase is thought to correspond to the direct stimulation of peripheral fibers while the second (inflammatory) phase is caused by the release of inflammatory mediators from the damaged tissue and nerve endings. Thus, this model is ideally suited for efficacy of an investigational AED against the acute and chronic hyper-responsive neuronal discharges following activation of peripheral nerve fibers.
The results of the formalin test are given both as raw data (“Response”) and in an aggregate, analyzed form (“Analysis”). In the Response section, each Trial involves sixteen animals, eight controls given an i.p. injection of vehicle and eight given the compound at a specified dose. Thus, for multiple doses of the compound, there will also be multiple control groups. The data recorded for each animal is the amount of time(s) spent licking the affected hind paw in a two minute period. These two minute periods occur at five minute intervals and continue for 45 minutes. […] From this plot, we can then determine the area under the curve (AUC) for each animal during both the acute and inflammatory stages. The AUC for each phase is shown in the analysis section of the data sheet for both control and drug-treated animals The AUC for each drug-treated animal is compared to the average result from the control group, yielding an average percent of control (reported with the SEM and p value).

[2] = system: thermal hyperalgesia after CCI of the sciatic nerve; assay: chronic constriction injury (CCI) model, heat hyperalgesia (plantar test); type: in vivo, mice; conditions: 16 mg/kg i.p.
Description: In addition, the pro- or antinociceptive effects of the compounds of the present invention are analyzed in the chronic constriction injury (CCI) model. The GABAA receptor subunit selective test compounds of the present invention are analysed in the CCI model in 7-8-week-old C57BL/6 mice. See Bennett, G. J. & Xie, Y. K. A peripheral mononeuropathy in rat that produces disorders of pain sensation like those seen in man. […] Seven to eight week old mice are anesthetized with isofluran. Unilateral constriction injury of the left sciatic nerve just proximal to the trifurcation is performed with three loose ligatures. […] Heat hyperalgesia, cold allodynia and mechanical sensitization are assessed 7-9 days after surgery. Mechanical sensitivity is assessed with electronic von Frey filaments (IITC).
Heat hyperalgesia is assessed by measuring paw withdrawal latencies on exposure to a defined radiant heat stimulus are measured with a commercially available apparatus (Plantar Test; Ugo Basile). […]
Pain studies—Neuropathic pain: HZ166 and gabapentin were analyzed in the chronic constriction injury (CCI) model. […] Heat hyperalgesia and mechanical sensitization were assessed 7-16 days after surgery.
Pain Studies—Heat hyperalgesia: Paw withdrawal latencies upon exposure to a defined radiant heat stimulus were measured using a commercially available apparatus (Plantar Test, Ugo Basile, Comerio, Italy). […]

[3] = system: inflammatory hyperalgesia induced by zymosan A; assay: zymosan A model of inflammatory pain, mechanical sensitization; type: in vivo, mice; conditions: 16 mg/kg i.p., 48 hours after zymosan A; n=6
Description: Inflammatory pain is assessed in the zymosan A model. See Hargreaves, K., Dubner, R., Brown, F., Flores, C. & Joris, J. A new and sensitive method for measuring thermal nociception in cutaneous hyperalgesia. Pain 32, 77-88 (1988). Inflammatory pain is induced by subcutaneous injection of zymosan A (0.06 mg in mice; 1 mg in rats) into one hindpaw. In mice, 0.06 mg of zymosan A suspended in […] of 0.9% NaCl is injected subcutaneously into the plantar side of the left hindpaw. The model is also used in rats, but 1 mg of zymosan A is used. Heat hyperalgesia is assessed 24 h and 6 h after induction of inflammation in mice and rats, respectively.
Pain Studies—Inflammatory pain: Inflammatory pain was studied in the zymosan A model (Meller and Gebhart, 1997). 0.06 mg zymosan A (Sigma Chemicals) suspended in 20 μl 0.9% NaCl was injected subcutaneously into the plantar side of the left hindpaw. Mechanical sensitization was assessed 48 hours after induction of inflammation.
Pain Studies—Mechanical sensitization: Mechanical sensitivity was assessed with dynamic von Frey filaments (IITC, Woodland Hills, Calif.). […]
Statistical Analysis: For all different doses and vehicle, baseline paw withdrawal thresholds/latencies on day 7 after nerve ligation or on day 2 after zymosan A injection were subtracted from all later withdrawal thresholds and the area under the curve (AUC) was calculated. […]

[4] = system: motor coordination of mice; assay: rotarod test (motor impairment); type: in vivo; conditions: HZ166 16 and 48 mg/kg, gabapentin 10 and 30 mg/kg, i.p., 60 min after treatment
Description: Motor impairment: A possible impairment of motor function was analyzed in the rotarod test. Mice were trained on the rotarod (diameter 3 cm, 2 rpm) for 2 days. Animals capable of remaining on the rotarod in the absence of treatment for at least 2 min were selected for drug testing. On the test day, the latency to fall off the rod was recorded before and 60 minutes after treatment with vehicle, HZ166 or gabapentin.

[5] = system: neuropathic pain after CCI of the sciatic nerve; assay: tolerance development in the CCI model (chronic treatment); type: in vivo, mice; conditions: for tolerance development / loss of antihyperalgesic activity: 9-day treatment period in neuropathic mice
Description: Tolerance development: Possible development of tolerance against the antihyperalgesic effect of HZ166 was investigated in the CCI model. Starting from day 7 after CCI surgery, HZ166 at the dose of 16 mg/kg or vehicle were administered intraperitoneally once daily for 9 consecutive days. On day 10, each group (vehicle and HZ166) was subdivided in 2 subgroups: one received vehicle and the other HZ166 at the dose of 16 mg/kg. After the last injection, mechanical sensitivity was assessed for 3 hours.

[6] = system: Cyp; assay: Cyp profile

C#Cc1ccc2c(c1)C(c1ccccn1)=NCc1c(C(=O)OCC)ncn1-2 [HZ-166, 8-Acetylenyl-6-pyridin-2-yl-4H-benzo[f]imidazo[1,5-a][1,4]diazepine-3-carboxylic acid ethyl ester]
protection at the acute phase of chemically induced pain ([1]; formalin test, acute phase): significant protection | Change (% of Control) ± SEM, T22 Formalin Pain, Acute ([1]; mouse, i.p., acute phase, dose 16 (HZ-166), 10 (JY-XHE-053), 1 (XLI-JY-DMH) mg/kg): 66.8 % of Control | Change (% of Control) ± SEM, T22 Formalin Pain, inflammatory ([1]; mouse, i.p., inflammatory phase, dose 16 (HZ-166), 10 (JY-XHE-053), 1 (XLI-JY-DMH) mg/kg): 63 % of Control | time of peak effect on PWLs after administration [2]: 1 h | AUC of PWL, injured paw ([2]; 7 days after surgery, n=6): 4.33±1.95 s*h | AUC of mechanical PWT [3]: 1.55 ± 0.21 g·h | interfered with rotarod performance [4]: Neither | analgesic activity in mice chronically exposed to HZ166 versus drug-naïve mice ([5]; 16 mg/kg once daily for 9 days from day 7 after CCI, test on day 10): virtually the same | tolerance development / loss of antihyperalgesic activity [5]: did not develop tolerance | tolerance development / loss of antihyperalgesic activity ([5]; listed as HZ166): no loss | Cyp profile [6]: good
